Entries after “also recorded” stand apart in the source; their conditions may differ. Each block holds one substance with its values, some of them ahead of it. Ends that are not written are not given here.
Experiments:
[1] = Affinity coelectrophoresis (ACE) of peptide binding to radiolabeled low Mr heparin; set-up: species or system pig
Text: Preparation of Radiolabeled Heparin. Whole heparin from pig intestinal mucosa (Sigma) was tyramine end-labeled and radiolabeled with Na^125I (Amersham, Pharmacia Biotech, Inc., Piscataway, N.J.) to an average specific activity≅1.0×10^7 CPM/μg as described (San Antonio, J. D., et al., Biochemistry, 32:4746-4755, 1993). Radiolabeled heparin was fractionated on Sephadex G-100 (Bio-Rad Laboratories, Hercules, Calif.) and the final≅12% of material to elute was retained as the low Mr material of ≦6,000 (Jordan, R., D. Beeler, and R. Rosenberg, J. Biol. Chem., 254:2902-2913, 1979; Laurent, T. C., et al., Biochem. J., 175:691-701, 1978).
Analysis of Peptide-Heparin Interactions by Affinity Coelectrophoresis (ACE). ACE was used to study interactions between peptides and low molecular weight (low Mr) heparin (WO00/45831). In ACE, trace concentrations of radiolabeled heparin are electrophoresed through agarose lanes containing peptides at various concentrations. These analyses are used to determine the dissociation constants (Kd's). The electrophoretic patterns of radiolabeled heparin are then visualized using a phosphorimager, and the dissociation constant (Kd) corresponds to the protein concentration at which the heparin is half shifted from being fully mobile at very low protein concentrations to maximally retarded at saturating protein concentrations. The lower the Kd value, the higher the affinity.
Binding of radiolabeled heparin to peptides was studied by ACE as detailed elsewhere (San Antonio, J. D., et al., Biochemistry, 32:4746-4755, 1993). […] Briefly, peptides were dissolved in 1×ACE running buffer, 50 mM sodium 3-(N-morpholino)-2-hydroxypropanesulfonate (MOPSO, Sigma)/125 mM sodium acetate, pH 7.0, and serially diluted in running buffer at 2× concentrations. Peptides were then mixed 1:1 with 2% agarose/1% CHAPS, 3-[(3-cholamidopropyl)dimethylammonio]-1-propanesulfonate, (Boehringer Mannheim, Indianapolis, Ind.), and loaded into wells of a 1% agarose gel. Radiolabeled heparin was then loaded in a slot on the anode side of the gel, and electrophoresed through the peptide-containing wells, towards the cathode. Gels were dried and PG mobility was measured with a Phosphorimager (Molecular Dynamics, Sunnyvale, Calif.) by scanning each protein lane and determining the relative radioactivity content per 88-μm pixel through the length of the lane. Retardation coefficient (R) measurements, binding isotherm curve fittings, and apparent Kd value determinations were calculated as detailed previously (Lee, M. K., and A. D. Lander, Proc. Natl. Acad. Sci. USA, 88:2768-2772, 1991; San Antonio, J. D., et al, Biochemistry, 32:4746-4755, 1993).
Retardation coefficients (R) for the migration of low Mr 1^25I-tyramine-heparin through peptides were determined from ACE gel electrophoretograms, and are plotted against peptide concentration. Smooth curves represent non-linear least-squares fits to the equation R=R∞/{1+(Kd/[peptide])^n}.

[2] = tested on: platelets; assay: Platelet aggregation with aggregation-inducing agents; type: cell-based, human; conditions: 12 μg/ml; Lovenox 0.5 U/ml; collagen, ADP, ristocetin, epinephrine, SFFLRN, A23187
Protocol: Plasma from six volunteers was tested with various aggregation inducing agents, at several concentrations of each agent, and with six different peptides of the invention. The effect of heparin-binding peptides of the invention on platelet aggregation was determined using standard procedures as previously described. The six peptides which were synthesized and tested were: (ARKKAAKA)4 (SEQ ID NO:31), ARKKAAKA(A16)ARKKAAKA (SEQ ID NO:30), (ARKKAAKA)3ARKKCAKA (SEQ ID NO:33), (ARKKAAKA)3VLVLVLVL (SEQ ID NO:5), C(ARKKAAKA)4C (SEQ ID NO:34), and (AKKARA)6 (SEQ ID NO:32).
The aggregation-inducing agents tested were: collagen, adenosine diphosphate (ADP), ristocetin, epinephrine, the thrombin receptor peptide SFFLRN, and calcium ionophore A23187. Platelets were subjected to protamine, or to SEQ ID NOS:31, 33, 30, 5, 34, or 32 at 12 μg/ml, and Lovenox® at 0.5 U/ml. Platelet aggregation in response to agonists was monitored and percent aggregation was determined over a five minute interval.
The agonist was added after equilibration of the platelets for one minute.

[3] = Hemodynamic effects in rats without prior Lovenox; conditions: no Lovenox
[4] = tested on: anti-Factor Xa Activity of the Low Molecular Weight Heparin Lovenox ®; assay: Anti-Factor Xa assay (Stachrom Heparin kit): neutralization of Lovenox in citrate or plasma in vitro; type: biochemical, human; conditions: in both citrate and plasma
Protocol: (§1) The ability of peptides such as (ARKKAAKA)3VLVLVLVL (SEQ ID NO:5) to neutralize the anti-Factor Xa activity of UFH and LMWH in vitro was tested using the Stachrom Heparin kit (Diagnostica Stago), a standard hematology laboratory assay used to measure the anti-Factor Xa activity of heparin. The assay was performed using the low molecular weight heparin enoxaparin sodium (Lovenox®, Aventis Pharmaceuticals, Inc.), unfractionated heparin (UFH), or the non-heparin glycosaminoglycan danaparoid sodium (Orgaran®, Organon Inc., West Orange, N.J.) in 0.32% citrate or in plasma anticoagulated with 0.32% citrate. Enoxaparin is commonly used clinically as a low molecular weight heparin (LMWH). Danaparoid is commonly used clinically as a non-heparin glycosaminoglycan anticoagulant. Currently, the only FDA approved drug to target UFH is protamine, which is not effective in vivo against LMWH or a non-heparin glycosaminoglycan such as danaparoid. Buffer and ATIII are added to form the heparin/ATIII complex, peptide is added, then Factor Xa, reporter dye substrate for Factor Xa activity, and stop solution, and the dye concentration is read at 405 nm. The absorbance of the dye increases with increasing Factor Xa activity, and thus is inversely proportional to the heparin (anti-Factor Xa activity) concentration. Peptides were tested in plasma obtained from three volunteers (A, B, and C). Platelet function inhibitors PG12 and theophylline were added to the blood immediately upon collection.
Results. […] (ARKKAAKA)3VLVLVLVL (SEQ ID NO:5) and VLVL(ARKKAAKA)3ARKKCAKA (SEQ ID NO:38) were able to neutralize about 0.4 U/ml anti-Factor Xa activity of LMWH at a concentration of 12 μg/ml, which would be an effective dose for patients. (AKKARA)6 (SEQ ID […]), (ARKKAAKA)4 (SEQ ID NO:31) and (ARKKAAKA)3ARKKCAKA […] 0.3-0.35 U/ml. In contrast, 12 μg protamine only neutralized about 0.25 U/ml of LMWH under these conditions.

[5] = tested on: anti-Factor Xa Activity of Unfractionated Heparin; assay: Anti-Factor Xa assay: neutralization of unfractionated heparin in citrate or plasma in vitro; type: biochemical, human; conditions: in both citrate and plasma
Protocol: as §1, with “collection. […]” for “collection.”

[6] = Hemodynamic effects in rats after administration of the LMWH Lovenox; conditions: in the presence of LMWH Lovenox
Protocol: Next, experiments were performed in which the animals were treated with the peptides after the administration of the LMWH Lovenox®, as would happen in the clinical situation, because binding of peptides to LMWH would be expected to reduce the effects of the peptides on hemodynamic function.

[7] = tested on: Lovenox ® Activity in Blood from Patients Treated with Lovenox ®; assay: Neutralizing Lovenox activity in blood from patients treated with Lovenox (anti-Factor Xa assay); type: biochemical, human; conditions: Peptide 12 μg/ml
Protocol: Blood was obtained from volunteers who were being treated with Lovenox® for their medical conditions after obtaining signatures on informed consent forms as approved by the Institutional Review Board. The assays to test neutralization of Lovendx® were performed as described for Table 2. A dose response from 1-60 μg/ml was evaluated as in Table 2.
The dose response pattern for the effective peptides was similar to the dose response in control plasma to which Lovenox® had been added. Each data point represents the mean and standard deviation of triplicate analyses on the same sample of blood from each patient.

affinity for low molecular weight heparin [1]: high affinity
Substance: (ARKKAAKA)4VLVLVLVL (ARKKAAKAARKKAAKAARKKAAKAARKKAAKAVLVLVLVL; Fragment) [SEQ ID NO:1]

Substance: AKKARAAKKARAAKKARAAKKARAAKKARAAKKARA [(AKKARA)6]
effect on platelet aggregation [2]: no significant inhibition or enhancement of aggregation | reduction/drop of blood pressure ([3]; 2 mg per rat (300-350 grams)): about 30 mm Hg | time to nadir of blood pressure ([3]; 2 mg per rat): 2 min

affinity for low molecular weight heparin [1]: negligible affinity
Substance: ARKKAAKA (Fragment) [monomer, control peptide, reference compound]
effect in the anti-Factor Xa assay for Lovenox [4]: no effect | effect in the anti-Factor Xa assay for UFH [5]: no effect

Substance: ARKKAAKAARKKAAKAARKKAAKAARKKCAKA [(ARKKAAKA)3ARKKCAKA, (ARKKAAKA)3(ARKKCAKA)]
effect on blood pressure and heart rate / toxicity [6]: no significant effect on blood pressure and heart rate; also recorded: All rats tested showed no response to peptide | effect on platelet aggregation [2]: no significant inhibition or enhancement of aggregation | effect on blood pressure ([3]; 2 mg per rat): did not cause a change in blood pressure

Kd ([1]; pH 7.0, mean and standard deviation of four assays, read-out: Kd (nM), affinity for low molecular weight heparin): 5220 ± 1550 nM
Substance: VLVLARKKAAKAPARKKAAKAVLVL
Lovenox ® Neutralized ([7]; blood of Lovenox-treated Patient Number 1): 0.027 U/ml | Lovenox ® Neutralized ([7]; blood of Lovenox-treated Patient Number 2): 0.012 U/ml | Lovenox ® Neutralized ([7]; blood of Lovenox-treated Patient Number 3): 0.021 U/ml | Lovenox ® Neutralized ([7]; blood of Lovenox-treated Patient Number 4): 0.022 U/ml | Lovenox ® Neutralized ([7]; blood of Lovenox-treated Patient Number 5): 0 U/ml | Lovenox ® Neutralized ([7]; blood of Lovenox-treated Patient Number 8): 0.018 U/ml | Lovenox ® Neutralized ([7]; blood of Lovenox-treated Patient Number 9): 0.007 U/ml | Lovenox ® Neutralized ([7]; blood of Lovenox-treated Patient Number 10): 0.025 U/ml | Lovenox ® Neutralized ([7]; blood of Lovenox-treated Patient Number 11): 0.050 U/ml

Source: patent publication US7259140B2, “Heparin-binding peptides and uses thereof” (Thomas Jefferson University, priority 2003, dated 2007)
